The Kinase Knowledgebase extract (Sharma et al. 2016)

How the values were obtained:
[1] = target: PIK3CB (Human) (UniProt P42338); test: Assessment of PIK3CB Kinase Activity
[2] = target: PIK3CA (human) (UniProt P42336); test: Assessment of PIK3CA Kinase Activity
[3] = target: PIK3CD (Human) (UniProt O00329); test: Assessment of PIK3CD Kinase Activity
Chain of PIK3CD (Human) (O00329 whole entry, looked up): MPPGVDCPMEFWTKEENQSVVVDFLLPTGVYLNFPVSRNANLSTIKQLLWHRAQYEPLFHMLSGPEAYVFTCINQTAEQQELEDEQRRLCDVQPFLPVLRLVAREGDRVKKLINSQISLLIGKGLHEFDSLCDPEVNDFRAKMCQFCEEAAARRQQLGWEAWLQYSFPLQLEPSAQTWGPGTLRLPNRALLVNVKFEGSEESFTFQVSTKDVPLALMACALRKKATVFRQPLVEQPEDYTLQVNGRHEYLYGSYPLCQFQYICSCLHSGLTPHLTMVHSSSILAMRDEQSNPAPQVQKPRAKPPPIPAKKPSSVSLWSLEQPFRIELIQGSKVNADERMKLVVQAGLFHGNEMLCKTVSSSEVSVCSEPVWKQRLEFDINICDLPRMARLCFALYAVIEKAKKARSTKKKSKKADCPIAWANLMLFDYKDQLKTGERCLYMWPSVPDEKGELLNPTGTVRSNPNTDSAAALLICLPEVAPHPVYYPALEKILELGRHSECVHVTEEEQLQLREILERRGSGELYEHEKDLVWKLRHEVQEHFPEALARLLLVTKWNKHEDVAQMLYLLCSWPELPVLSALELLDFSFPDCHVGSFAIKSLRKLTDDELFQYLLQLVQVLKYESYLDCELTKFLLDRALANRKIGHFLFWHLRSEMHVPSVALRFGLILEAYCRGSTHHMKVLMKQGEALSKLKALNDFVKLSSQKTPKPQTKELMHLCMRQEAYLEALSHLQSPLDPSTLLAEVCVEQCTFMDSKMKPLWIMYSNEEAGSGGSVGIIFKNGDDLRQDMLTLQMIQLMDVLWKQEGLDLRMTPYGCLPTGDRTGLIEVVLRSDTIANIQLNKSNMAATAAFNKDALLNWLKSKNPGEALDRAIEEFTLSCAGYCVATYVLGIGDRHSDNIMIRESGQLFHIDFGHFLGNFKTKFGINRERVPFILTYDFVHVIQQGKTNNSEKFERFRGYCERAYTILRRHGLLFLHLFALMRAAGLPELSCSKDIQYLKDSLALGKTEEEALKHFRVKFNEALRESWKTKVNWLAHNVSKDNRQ

Chain of PIK3CB (Human) (P42338 whole entry, looked up): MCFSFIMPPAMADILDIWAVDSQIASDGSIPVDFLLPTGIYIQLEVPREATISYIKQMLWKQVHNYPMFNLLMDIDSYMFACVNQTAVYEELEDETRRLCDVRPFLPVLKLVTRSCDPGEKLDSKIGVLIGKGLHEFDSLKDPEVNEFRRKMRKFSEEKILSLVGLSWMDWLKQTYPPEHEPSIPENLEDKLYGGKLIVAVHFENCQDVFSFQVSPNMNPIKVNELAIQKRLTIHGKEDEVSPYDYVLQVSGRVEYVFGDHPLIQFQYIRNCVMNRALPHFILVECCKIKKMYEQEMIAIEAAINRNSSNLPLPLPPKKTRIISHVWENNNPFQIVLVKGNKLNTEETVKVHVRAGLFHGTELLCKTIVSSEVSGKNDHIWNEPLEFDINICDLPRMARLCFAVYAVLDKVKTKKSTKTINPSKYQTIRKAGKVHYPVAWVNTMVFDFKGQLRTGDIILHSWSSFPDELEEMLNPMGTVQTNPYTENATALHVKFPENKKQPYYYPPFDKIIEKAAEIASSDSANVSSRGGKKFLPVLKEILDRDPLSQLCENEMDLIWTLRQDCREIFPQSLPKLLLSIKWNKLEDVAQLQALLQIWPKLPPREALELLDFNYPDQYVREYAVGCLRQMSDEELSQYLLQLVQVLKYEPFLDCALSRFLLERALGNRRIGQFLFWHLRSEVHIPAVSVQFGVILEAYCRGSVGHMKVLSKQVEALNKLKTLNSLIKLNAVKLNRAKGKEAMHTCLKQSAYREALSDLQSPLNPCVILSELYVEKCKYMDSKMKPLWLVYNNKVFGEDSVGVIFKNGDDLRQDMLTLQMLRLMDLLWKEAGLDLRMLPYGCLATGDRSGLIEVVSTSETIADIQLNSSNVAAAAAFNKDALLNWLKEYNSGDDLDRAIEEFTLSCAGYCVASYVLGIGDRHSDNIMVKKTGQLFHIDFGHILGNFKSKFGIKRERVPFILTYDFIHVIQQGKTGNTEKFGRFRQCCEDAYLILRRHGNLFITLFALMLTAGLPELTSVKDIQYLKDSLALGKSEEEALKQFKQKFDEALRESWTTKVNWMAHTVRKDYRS
Chain of PIK3CA (human) (P42336 whole entry, looked up): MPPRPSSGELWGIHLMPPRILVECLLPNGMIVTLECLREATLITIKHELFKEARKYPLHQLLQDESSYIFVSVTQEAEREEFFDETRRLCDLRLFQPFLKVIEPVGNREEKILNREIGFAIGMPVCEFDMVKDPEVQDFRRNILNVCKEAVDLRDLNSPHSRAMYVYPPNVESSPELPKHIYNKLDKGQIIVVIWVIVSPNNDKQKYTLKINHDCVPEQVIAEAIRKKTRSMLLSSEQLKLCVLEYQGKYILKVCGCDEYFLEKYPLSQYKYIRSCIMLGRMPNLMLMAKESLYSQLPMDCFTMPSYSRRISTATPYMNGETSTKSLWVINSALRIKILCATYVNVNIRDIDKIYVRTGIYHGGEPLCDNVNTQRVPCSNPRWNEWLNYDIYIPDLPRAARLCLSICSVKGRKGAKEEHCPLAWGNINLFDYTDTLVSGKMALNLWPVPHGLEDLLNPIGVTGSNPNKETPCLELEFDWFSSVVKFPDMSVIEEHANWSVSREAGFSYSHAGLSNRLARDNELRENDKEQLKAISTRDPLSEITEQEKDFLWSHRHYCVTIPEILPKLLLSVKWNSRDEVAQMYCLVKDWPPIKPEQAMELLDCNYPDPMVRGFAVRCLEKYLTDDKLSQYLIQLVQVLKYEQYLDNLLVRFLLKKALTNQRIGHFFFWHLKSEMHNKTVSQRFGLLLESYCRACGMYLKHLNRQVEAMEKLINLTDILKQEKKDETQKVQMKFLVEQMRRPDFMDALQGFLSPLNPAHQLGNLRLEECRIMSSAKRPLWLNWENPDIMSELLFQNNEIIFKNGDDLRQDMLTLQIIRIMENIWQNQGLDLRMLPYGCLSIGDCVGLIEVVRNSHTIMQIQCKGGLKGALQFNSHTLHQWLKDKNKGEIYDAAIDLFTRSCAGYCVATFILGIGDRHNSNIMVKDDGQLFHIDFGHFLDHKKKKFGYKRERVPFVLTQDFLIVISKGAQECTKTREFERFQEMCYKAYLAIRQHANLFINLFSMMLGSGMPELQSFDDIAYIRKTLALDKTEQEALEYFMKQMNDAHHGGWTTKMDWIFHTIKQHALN

IC50 [1] [nM] | IC50 [2] [nM] | IC50 [3] [nM] | SMILES
24 | 15 | 5 | COCc1ncc(-c2ccc3ncc4c(c3c2)n(-c2cn(C)nc2Cl)c(=O)n4C)cc1OC
5 | 8 | 5 | Cn1cc(-n2c(=O)n(C)c3cnc4ccc(-c5cncc(C(C)(C)O)c5)cc4c32)c(Cl)n1
73 | 41 | 18 | CCc1ncc(-c2ccc3ncc4c(c3c2)n(-c2cn(C)nc2C)c(=O)n4C)cc1OC(C)C
603 | 81 | 39 | CCNC(=O)c1cc(-c2ccc3ncc4c(c3c2)n(-c2c(C)nn(C)c2C)c(=O)n4C)cnc1NC
 | 27 | 75 | CCn1cc(-n2c(=O)n(C)c3cnc4ccc(-c5ccc(-n6cccn6)cc5)cc4c32)c(C)n1
101 | 139 | 22 | CCNc1cc(-c2ccc3ncc4c(c3c2)n(-c2c(C)noc2C)c(=O)n4C)cnc1Cl
30 | 4 | 5 | CCn1cc(-n2c(=O)n(C)c3cnc4ccc(-c5cnc(C)c(OC(C)C)c5)cc4c32)c(C)n1
7 | 9 | 3 | COCc1cc(-c2ccc3ncc4c(c3c2)n(-c2cn(C)nc2Cl)c(=O)n4C)cnc1N
